# Patent publication US9315453B2, “4-(3-benzyloxyphenylthio)-2-chloro-1-(3-nitropropyl)benzene crystal” (KYORIN PHARMACEUTICAL CO., LTD., priority 2012, dated 2016)
# How the values were obtained:
# [1] = Stability test of the crystals under accelerated and long-term storage conditions; format: physicochemical; conditions: 6 months after the start of the test, crystals obtained in Example 1
# Experimental: The crystals of the compound 1 obtained in Example 1 were subjected to a stability test under accelerated conditions (40° C./75% RH) and long-term storage conditions (25° C./60% RH).
# [2] = accelerated conditions (40° C./75% RH)
# [3] = long-term storage conditions (25° C./60% RH)
compound,measurement,setting,value
"O=[N+]([O-])CCCc1ccc(Sc2cccc(OCc3ccccc3)c2)cc1Cl [compound 1, 4-(3-benzyloxyphenylthio)-2-chloro-1-(3-nitropropyl)benzene]",melting point,,46 to 47 °C
same,change in the appearance of the crystals,[1]; [2],No change in the appearance
same,formation of decomposition products,[1]; [2],no decomposition products were formed
same,change in the appearance of the crystals,[1]; [3],No change in the appearance
same,formation of decomposition products,[1]; [3],no decomposition products were formed
